This is an account of results in ChEMBL document CHEMBL4229350, “Antimicrobial activity and self-assembly behavior of antimicrobial peptide chensinin-1b with lipophilic alkyl tails” (Eur J Med Chem, 2018).

Data set [1] has as its system U-937. In words: Antiinflammatory activity in human U937 cells assessed as inhibition of LPS-induced TNF-alpha production up to 40 microg/ml after 24 hrs by ELISA relative to control. The format is functional. Background: ELISA stands for enzyme-linked immunosorbent assay.
Data set [2] deals with U-937. In words: Antiinflammatory activity in human U937 cells assessed as inhibition of LPS-induced IL-6 production up to 40 microg/ml after 24 hrs by ELISA relative to control. It is filed as functional.
The test system of data set [3] is Lipid bilayer. In words: Induction of membrane permeabilization in calcein loaded PG/CL large unilamellar vesicles assessed as calcein leakage at 3 uM after 10 mins by fluorescence assay relative to control.
Data set [4] relates to Staphylococcus aureus. In words: Antimicrobial activity against Staphylococcus aureus AS 1.72 after 18 hrs by micro dilution method. It is filed as functional. Conditions: AS 1.72, 18 h.
Data set [5] has as its system Lipid bilayer. In words: Induction of membrane permeabilization in calcein loaded PG/CL/PE large unilamellar vesicles assessed as calcein leakage at 3 uM after 10 mins by fluorescence assay relative to control.
The subject of data set [6] is Escherichia coli. In words: Antimicrobial activity against Escherichia coli AS 1.349 assessed as induction of bacterial cytoplasmic membrane depolarization at 2 times MIC after 6 mins by diSC3-5 dye-based fluorescence assay. It is filed as functional, organism-based.
For data set [7], the system named is Lipid bilayer. In words: Induction of membrane permeabilization in calcein loaded PC/cholesterol large unilamellar vesicles assessed as calcein leakage at 50 uM after 10 mins by fluorescence assay relative to control.
Data set [8] relates to Lipid bilayer. In words: Induction of membrane permeabilization in calcein loaded LPS/PC/PG large unilamellar vesicles assessed as calcein leakage after 15 mins by fluorescence assay.
Data set [9] has as its system Lipid bilayer. In words: Induction of membrane permeabilization in PG/CL large unilamellar vesicles assessed as blue shift at compound to lipid ratio of 60 by Tryptophan fluorescence spectroscopy.
Data set [10] relates to U-937. In words: Antiinflammatory activity in human U937 cells assessed as inhibition of LPS-induced IL-6 production at 6.25 uM after 24 hrs by ELISA relative to control. The format is functional. The note with it: U-937, 24 h.
The subject of data set [11] is Lipid bilayer. In words: Induction of membrane permeabilization in calcein loaded LPS/PC/PG large unilamellar vesicles assessed as calcein leakage at 50 uM after 15 mins by fluorescence assay relative to control.
In data set [12] the test system is U-937. In words: Antiinflammatory activity in human U937 cells assessed as inhibition of LPS-induced IL-6 production after 24 hrs by ELISA. It is filed as functional, cell-based.
Data set [13] relates to A-375. In words: Cytotoxicity against human A375 cells assessed as reduction in cell viability after 1 hr by MTT assay. The format is functional, cell-based. Conditions: A-375, 1 h. In general terms: Tetrazolium dyes change colour on reduction, which living cells bring about.
The subject of data set [14] is Pseudomonas aeruginosa. In words: Antimicrobial activity against Pseudomonas aeruginosa CGMCC 1.860 after 18 hrs by micro dilution method. It is filed as functional. The note with it: CGMCC 1.860, 18 h.
The subject of data set [15] is Lipid bilayer. In words: Induction of membrane permeabilization in PG/CL/PE large unilamellar vesicles assessed as blue shift at compound to lipid ratio of 10 by Tryptophan fluorescence spectroscopy.
The test system of data set [16] is Bacillus cereus. In words: Antimicrobial activity against Bacillus cereus AS 1.126 after 18 hrs by micro dilution method. The format is functional. The note with it: AS 1.126, 18 h.
The test system of data set [17] is Lipopolysaccharide (LPS). In words: Binding affinity to Escherichia coli 0111:B4 LPS assessed as equilibrium association constant by ITC method. (In general: ITC needs no label: the signal is the heat of the interaction.)
In data set [18] the test system is Staphylococcus aureus. In words: Antimicrobial activity against Staphylococcus aureus AS 1.72 assessed as induction of bacterial cytoplasmic membrane depolarization at 2 times MIC after 5 mins by diSC3-5 dye-based fluorescence assay. The format is functional, organism-based.
Data set [19] deals with Lipid bilayer. In words: Induction of membrane permeabilization in calcein loaded PG/CL large unilamellar vesicles assessed as calcein leakage at 6 uM after 15 mins by fluorescence assay relative to control.
Data set [20] concerns Staphylococcus aureus. In words: Antimicrobial activity against Staphylococcus aureus AS 1.72 assessed as induction of outer membrane permeabilization by measuring NPN uptake by fluorescence assay. The format is functional, organism-based.
For data set [21], the system named is Lactococcus lactis. In words: Antimicrobial activity against Streptococcus lactis AS 1.1690 after 18 hrs by micro dilution method. Conditions: AS 1.1690, 18 h. The format is functional.
A short description of data set [22]: Hemolytic activity against human erythrocytes after 1 hr. The format is ADME, cell-based, Erythrocyte.
Data set [23] can be described thus: Cytotoxicity against human U937 cells assessed as cell viability at 3.13 to 12.6 uM after 1 hr by MTT assay relative to control. It is filed as cell-based, U-937. The note with it: read-out: Activity.
For data set [24], the system named is U-937. In words: Antiinflammatory activity in human U937 cells assessed as inhibition of LPS-induced TNF-alpha production at 6.25 uM after 24 hrs by ELISA relative to control. The format is functional. The note with it: U-937, 24 h.
The subject of data set [25] is MCF7. In words: Cytotoxicity against human MCF7 cells assessed as reduction in cell viability after 1 hr by MTT assay. The format is functional, cell-based. The note with it: MCF7, 1 h.
Data set [26] concerns HeLa. In words: Cytotoxicity against human HeLa cells assessed as reduction in cell viability after 1 hr by MTT assay. It is filed as functional, cell-based.
Data set [27] deals with Enterococcus faecium. In words: Antimicrobial activity against Enterococcus faecium CGMCC 1.2334 after 18 hrs by micro dilution method. The format is functional. Conditions: CGMCC 1.2334, 18 h.
Data set [28] deals with U-937. In words: Antiinflammatory activity in human U937 cells assessed as inhibition of LPS-induced TNF-alpha production at 12.6 uM after 24 hrs by ELISA relative to control. It is filed as functional. Conditions: U-937, 24 h.
Data set [29] is described as follows: Self-assembly property assessed as diameter of monodispersed micelles at 1 mg/ml at pH 7 by TEM analysis. It is filed as physicochemical.
Data set [30] has as its system U-937. In words: Antiinflammatory activity in human U937 cells assessed as inhibition of LPS-induced TNF-alpha production after 24 hrs by ELISA. It is filed as functional, cell-based.
For data set [31], the system named is Escherichia coli. In words: Antimicrobial activity against Escherichia coli AS 1.349 after 18 hrs by micro dilution method. The format is functional. The note with it: AS 1.349, 18 h.
Data set [32] concerns U-937. In words: Antiinflammatory activity in human U937 cells assessed as inhibition of LPS-induced IL-6 production at 3.13 uM after 24 hrs by ELISA relative to control. The format is functional. The note with it: U-937, 24 h.
Data set [33] relates to U-937. In words: Antiinflammatory activity in human U937 cells assessed as inhibition of LPS-induced TNF-alpha production at 3.13 uM after 24 hrs by ELISA relative to control. The format is functional. Conditions: U-937, 24 h.
The test system of data set [34] is Lipopolysaccharide (LPS). In words: Binding affinity to Escherichia coli 0111:B4 LPS by ITC method.
In data set [35] the test system is Lipopolysaccharide (LPS). In words: Induction of LPS micelles disaggergation assessed as abundant particle size formation at 2 uM by DLS method.
The test system of data set [36] is Lipid bilayer. In words: Induction of membrane permeabilization in PC/cholesterol large unilamellar vesicles assessed as blue shift by Tryptophan fluorescence spectroscopy.
Data set [37] has as its system U-937. In words: Antiinflammatory activity in human U937 cells assessed as inhibition of LPS-induced IL-6 production at 12.6 uM after 24 hrs by ELISA relative to control. It is filed as functional. Conditions: U-937, 24 h.
Data set [38] relates to Escherichia coli. In words: Antimicrobial activity against Escherichia coli AS 1.349 assessed as induction of outer membrane permeabilization by measuring NPN uptake by fluorescence assay. It is filed as functional, organism-based.
A short description of data set [39]: Self-assembly property assessed as diameter of monodispersed micelles at 1 mg/ml at pH 7 readjusted from pH 2 by TEM analysis. The format is physicochemical.
Data set [40] concerns Lipid bilayer. In words: Induction of membrane permeabilization in calcein loaded PG/CL/PE large unilamellar vesicles assessed as calcein leakage at 6 uM after 15 mins by fluorescence assay relative to control.
The test system of data set [41] is Enterococcus faecalis. In words: Antimicrobial activity against Enterococcus faecalis CGMCC 1.595 after 18 hrs by micro dilution method. It is filed as functional. Conditions: CGMCC 1.595, 18 h.

Values after ≈ are worked out from the molar mass of the structure shown. Active and inactive are the calls of the source. No cut-off for these calls is given here. Bridge positions count the residues as written; N and C are the ends. Square brackets hold non-standard residues; d marks the D form. Peptide text beside a SMILES is read from it. * marks the point of attachment. Lauroyl = CCCCCCCCCCCC(=O)*; X1 = CC[C@H](C)CCCCC(=O)*; Dab = NCC[C@H](N)C(=O)O

For `CC[C@H](C)CCCCC(=O)N[C@@H](CCN)C(=O)N[C@H](C(=O)N[C@@H](CCN)C(=O)N[C@H]1CCNC(=O)[C@H]([C@@H](C)O)NC(=O)[C@H](CCN)NC(=O)[C@H](CCN)NC(=O)[C@H](CC(C)C)NC(=O)[C@@H](Cc2ccccc2)NC(=O)[C@H](CCN)NC1=O)[C@@H](C)O` (X1-[Dab]T[Dab][Dab][Dab][dF]L[Dab][Dab]T; lactam 4-C), the “inhibition (INH)” value in data set [1] is reported as 28%; in data set [2], 44%.
Usually MIC stands for the least concentration at which growth counts as inhibited. A higher MIC goes with a less susceptible organism. By inhibition is commonly meant the percentage by which the read-out fell short of the control. What is called IC50 is the concentration needed to halve the response being measured. Usually HC50 stands for the concentration giving 50% haemolysis. A low value points to stronger haemolysis. What is called Kd is the constant that tells how readily two partners part at equilibrium. A low value points to higher affinity. For `CCCCCCCCCCCC(=O)N[C@@H](CO)C(=O)N[C@@H](CCCCN)C(=O)N[C@H](C(=O)N[C@@H](Cc1c[nH]c2ccccc12)C(=O)N[C@@H](CCCNC(=N)N)C(=O)N[C@@H](Cc1cnc[nH]1)C(=O)N[C@@H](Cc1c[nH]c2ccccc12)C(=O)N[C@@H](CCCNC(=N)N)C(=O)N[C@@H](CCCNC(=N)N)C(=O)N[C@@H](Cc1ccccc1)C(=O)N[C@@H](Cc1c[nH]c2ccccc12)C(=O)N[C@@H](Cc1cnc[nH]1)C(=O)N[C@@H](CCCNC(=N)N)C(=O)N[C@@H](C)C(=O)N[C@@H](Cc1cnc[nH]1)C(=O)N[C@@H](CCCNC(=N)N)C(=O)N[C@@H](CCCCN)C(=O)N[C@@H](CC(C)C)C(=O)O)C(C)C` (Lauroyl-SKVWRHWRRFWHRAHRKL-OH), the Activity was 64% in data set [3]; 42% in data set [5]; 20% in data set [7]; “Dose-dependent effect” in data set [8]; 20 nm in data set [9]; 58% in [11]. Besides, the Activity is 16 nm in data set [15]; 81% in data set [19]; “Dose-dependent effect” in data set [20]; 66 nm in data set [29]; 350 nm in data set [35]; “Dose-dependent effect” in [38]. The Activity in [39] is 108 nm; in data set [40], 54%. In addition, the MIC in data set [4] was 3.13 µM (≈ 8.53 µg/mL); in data set [14] it was 1.56 µM (≈ 4.25 µg/mL); in data set [16], 3.13 µM (≈ 8.53 µg/mL); in data set [21], 3.13 µM (≈ 8.53 µg/mL); in data set [27] it was 1.56 µM (≈ 4.25 µg/mL); in data set [31], 6.25 µM (≈ 17 µg/mL). In addition, the MIC in [41] was found to be 3.13 µM (≈ 8.53 µg/mL). The outcome in data set [6] and in data set [18] was Active. The results for the inhibition at 6.25 µM in data set [10] and in [24] were 29% and 27%, respectively. Also, the inhibition result in data set [12] and in data set [30] was “Dose-dependent effect” each time. Besides, the IC50 came to 21.2 µM in data set [13], 25.8 µM in data set [25] and 20.4 µM in [26]. Further, the Ka in data set [17] amounted to 136 mM⁻¹. The compound further yielded an HC50 at 1 h in data set [22] above 500 µM. Further, the viability at 1 h, up to 12.6 µM in data set [23] amounted to 80%. The inhibition at 12.6 µM in data set [28] came to 31%; in data set [37] it was 33%. In addition, the figures for the inhibition at 3.13 µM in data set [32] and in data set [33] were 17% and 26%, respectively. In data set [34], this compound came in with a Kd of 7.35 µM. The outcome in data set [36] was inactive.
